Data reported in publication PMC5766511 (Scientific Reports, 2018).
“Also recorded” adds a separate entry of the source.

Columns and labels:
[1] = target: HLA-DR15 (DRB1*15:01) heterodimer (Homo sapiens, UniProt P01903+P01911); test: biochemical; assay type: binding
[2] = target: HLA-DR3 (DRB1*03:01) heterodimer (Homo sapiens, UniProt P01903+P01911, A100K/A102G/A103R/A169T/F55Y/I96L/K41T/L162R/M171V/P40S/Q125H/Q178H/Q39Y/R42S/S66N/T106N/T262R/W38E/Y61H); test: biochemical
[3] = tested on: splenocytes of ZIKV (PF13/251013-18) infected AG129 mice; assay type: cell-based, mouse; details: n = 5
[4] = tested on: draining lymph node cells of HLA-DR1 (DRB1*0101) transgenic mice; assay type: cell-based, mouse; details: n = 6
[5] = tested on: draining lymph node cells of HLA-DR1501 (DRB1*1501) transgenic mice; assay type: cell-based, mouse; details: primed with 25 μg recombinant ZIKV Env; day 10 DLN cells; positive if > 2 SD above mean without antigen; n = 6; Fig. 2B
[6] = tested on: draining lymph node cells of HLA-DQ8 (DQB1*0302) transgenic mice; assay type: cell-based, mouse; details: n = 6

HLA-DR3 (DRB1*03:01) heterodimer, sequence (P01903 26-254 limits assumed, other chains not shown): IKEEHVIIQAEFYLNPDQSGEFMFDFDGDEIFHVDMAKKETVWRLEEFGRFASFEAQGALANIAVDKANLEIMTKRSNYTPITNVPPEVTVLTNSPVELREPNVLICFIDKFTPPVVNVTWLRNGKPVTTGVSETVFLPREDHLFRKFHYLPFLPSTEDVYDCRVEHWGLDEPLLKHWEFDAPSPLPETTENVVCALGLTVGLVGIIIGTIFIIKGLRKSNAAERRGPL

Q: For `CC(C)C[C@H](NC(=O)[C@H](Cc1ccc(O)cc1)NC(=O)[C@H](C)NC(=O)[C@H](CCCNC(=N)N)NC(=O)[C@H](CC(C)C)NC(=O)[C@H](CCC(N)=O)NC(=O)[C@H](CCC(=O)O)NC(=O)[C@H](C)NC(=O)[C@@H](N)CCC(=O)O)C(=O)N[C@@H](CC(=O)O)C(=O)NCC(=O)N[C@H](C(=O)NCC(=O)N[C@H](C(=O)N[C@@H](CCC(=O)O)C(=O)O)C(C)C)[C@@H](C)O` [A3 152–166], which IC50 [1] is on record?
A: The IC50 was 40 nM.

Q: For `CC[C@H](C)[C@H](NC(=O)[C@@H](NC(=O)[C@H](CCCCN)NC(=O)[C@H](C)NC(=O)[C@H](C)N)[C@@H](C)O)C(=O)N[C@@H](C)C(=O)N[C@@H](Cc1ccc(O)cc1)C(=O)N[C@@H](CC(=O)O)C(=O)N[C@@H](CCC(=O)O)C(=O)N[C@@H](CCC(=O)O)C(=O)N[C@@H](C)C(=O)N[C@@H](CCCNC(=N)N)C(=O)N[C@@H](CCCNC(=N)N)C(=O)NCC(=O)N[C@@H](CC(C)C)C(=O)N[C@@H](CCC(=O)O)C(=O)O` [MT2-16], which IC50 [2] is on record?
A: The IC50 was 50 nM.

Q: How did the “IFNγ ELISpot response of splenic cells to peptide” value [3] turn out when FNCLGMSNRDFLEGVSGATW [WNV P1] was run?
A: Its value is “Strong responses; also recorded: of similar magnitude to the ZIKV p1 response”.

Q: What about the “IFNγ ELISpot response of ZIKV Env primed T cells to peptide (in words), HLA-DR1” value [4] of the same molecule?
A: Its value is “significant responses”.

Q: What about the “IFNγ ELISpot response of ZIKV Env primed T cells to peptide (in words), HLA-DR1501” value [5] of the same molecule?
A: The value was “cross-reactive responses”.

Q: And the “IFNγ ELISpot response of ZIKV Env primed T cells to peptide (in words), HLA-DQ8” value [6]?
A: Its value is “significant responses”.

Q: Which “IFNγ ELISpot response of ZIKV Env primed T cells to peptide (in words), HLA-DQ8” value [6] does the source give for “KAACPTMGEAHNDKRADPAF [WNV P8, WNV Env variant of ZIKV Env peptide 8]” here?
A: The value was “cross-reactive epitope recognition”.
